Experimental data taken from patent publication US9670227B2, “Thienopyrimidine derivatives, a process for their preparation and pharmaceutical compositions containing them” (LES LABORATOIRES SERVIER, priority 2013, dated 2017).
Read-outs that look alike come from different tables or passages of the source.

Key:
Mcl-1 protein = Mcl-1 protein (UniProtKB primary accession number: Q07820) (Homo sapiens, UniProt Q07820); test: Inhibition of Mcl-1 by fluorescence polarisation, Method 1; assay type: binding; conditions: fluorescence polarisation; Method 1, or Method 2; read-out: IC50 (M) Mcl-1 FP
How it was run: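 Buffer of 10 mM HEPES pH 7.4 with 150 mM NaCl and 0.05% Tween 20 held 5 nM Mcl-1 and 1 nM fluorescein-tagged ligand (final). Compounds were tested as 11-point serial dilutions at 5% final DMSO, and binding was read by FP.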

[1] = tested on: H929 multiple myeloma tumour line; test: In vitro cytotoxicity, Microculture Tetrazolium Assay; assay type: cell-based; conditions: H929 cells, 48 hours exposure, MTT, read-out: IC50 (μM) MTT H929
Experimental: The cytotoxicity studies were carried out on the H929 multiple myeloma tumour line.
The cells are distributed onto microplates and exposed to the test compounds for 48 hours.

Sequence of Mcl-1 protein (Q07820 whole entry): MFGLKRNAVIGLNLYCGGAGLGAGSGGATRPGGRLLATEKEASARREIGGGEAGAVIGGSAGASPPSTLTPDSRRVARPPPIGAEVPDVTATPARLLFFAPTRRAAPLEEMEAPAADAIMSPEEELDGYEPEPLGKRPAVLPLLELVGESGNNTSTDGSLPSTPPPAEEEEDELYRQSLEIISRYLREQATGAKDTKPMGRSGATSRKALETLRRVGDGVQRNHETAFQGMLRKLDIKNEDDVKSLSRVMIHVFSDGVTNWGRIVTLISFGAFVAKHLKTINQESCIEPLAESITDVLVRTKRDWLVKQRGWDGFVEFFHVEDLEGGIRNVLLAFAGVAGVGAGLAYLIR

SMILES	IC50 (Mcl-1 protein) [M]	IC50 ([1]; Homo sapiens, NCI-H929, 48 h) [µM]	IC50 [1] [µM]
CC#Cc1sc2ncnc(OC(Cc3ccccc3OC)C(=O)O)c2c1-c1cc(OC)c(OCCN2CCN(C)CC2)c(Cl)c1C [Example 477, (2R)-2-{[(5Sa)-5-{3-chloro-5-methoxy-2-methyl-4-[2-(4-methylpiperazin-1-yl)ethoxy]phenyl}-6-(prop-1-yn-1-yl)thieno[2,3-d]pyrimidin-4-yl]oxy}-3-(2-methoxyphenyl)propanoic acid]	5.6e-08	2.57	–
CC#Cc1sc2ncnc(OC(Cc3ccccc3OCC)C(=O)O)c2c1-c1ccc(OCCN2CCN(C)CC2)c(Cl)c1C [Example 481, (2R)-2-{[(5Sa)-5-{3-chloro-2-methyl-4-[2-(4-methylpiperazin-1-yl)ethoxy]phenyl}-6-(prop-1-yn-1-yl)thieno[2,3-d]pyrimidin-4-yl]oxy}-3-(2-ethoxyphenyl)propanoic acid]	5.4e-09	0.643	–
CC#Cc1sc2ncnc(OC(Cc3ccccc3OCc3ccnc(CCOC)n3)C(=O)O)c2c1-c1ccc(OCCN2CCN(C)CC2)c(Cl)c1C [Example 484, (2R)-2-{[(5Sa)-5-{3-chloro-2-methyl-4-[2-(4-methylpiperazin-1-yl)ethoxy]phenyl}-6-(prop-1-yn-1-yl)thieno[2,3-d]pyrimidin-4-yl]oxy}-3-(2-{[2-(2-methoxyethyl)pyrimidin-4-yl]methoxy}phenyl)propanoic acid]	3.4e-09	0.014	–
CC#Cc1sc2ncnc(OC(Cc3ccccc3OCc3ccnc(OC)n3)C(=O)O)c2c1-c1ccc(OCCN2CCN(C)CC2)c(Cl)c1C [Example 486, (2R)-2-{[(5Sa)-5-{3-chloro-2-methyl-4-[2-(4-methylpiperazin-1-yl)ethoxy]phenyl}-6-(prop-1-yn-1-yl)thieno[2,3-d]pyrimidin-4-yl]oxy}-3-{2-[(2-methoxypyrimidin-4-yl)methoxy]phenyl}propanoic acid]	1.9e-09	0.146	–
Cc1c(-c2c(-c3cc4ccccc4s3)sc3ncnc(OC(Cc4ccccc4)C(=O)O)c23)ccc(OCCN2CCN(C)CC2)c1Cl [Example 497, (2R)-2-{[6-(1-benzothiophen-2-yl)-(5Sa)-5-{3-chloro-2-methyl-4-[2-(4-methylpiperazin-1-yl)ethoxy]phenyl}thieno[2,3-d]pyrimidin-4-yl]oxy}-3-phenylpropanoic acid]	9.1e-07	5.95	–
Cc1ccc(-c2sc3ncnc(OC(Cc4ccccc4)C(=O)O)c3c2-c2ccc(OCCN3CCN(C)CC3)c(Cl)c2C)o1 [Example 499, (2R)-2-{[(5Sa)-5-{3-chloro-2-methyl-4-[2-(4-methylpiperazin-1-yl)ethoxy]phenyl}-6-(5-methylfuran-2-yl)thieno[2,3-d]pyrimidin-4-yl]oxy}-3-phenylpropanoic acid]	1e-07	1.5	–
Cc1c(-c2c(-c3ccc(Cl)s3)sc3ncnc(OC(Cc4ccccc4)C(=O)O)c23)ccc(OCCN2CCN(C)CC2)c1Cl [Example 501, (2R)-2-{[(5Sa)-5-{3-chloro-2-methyl-4-[2-(4-methylpiperazin-1-yl)ethoxy]phenyl}-6-(5-chlorothiophen-2-yl)thieno[2,3-d]pyrimidin-4-yl]oxy}-3-phenylpropanoic acid]	2.8e-07	2.84	–
Cc1c(-c2c(-c3cccn3C)sc3ncnc(OC(Cc4ccccc4)C(=O)O)c23)ccc(OCCN2CCN(C)CC2)c1Cl [Example 503, (2R)-2-{[(5Sa)-5-{3-chloro-2-methyl-4-[2-(4-methylpiperazin-1-yl)ethoxy]phenyl}-6-(1-methyl-1H-pyrrol-2-yl)thieno[2,3-d]pyrimidin-4-yl]oxy}-3-phenylpropanoic acid]	5e-07	7.02	–
Cc1c(-c2c(-c3ccsc3)sc3ncnc(OC(Cc4ccccc4)C(=O)O)c23)ccc(OCCN2CCN(C)CC2)c1Cl [Example 510, (2R)-2-{[(5Sa)-5-{3-chloro-2-methyl-4-[2-(4-methylpiperazin-1-yl)ethoxy]phenyl}-6-(thiophen-3-yl)thieno[2,3-d]pyrimidin-4-yl]oxy}-3-phenylpropanoic acid]	3.9e-08	0.639	–
COc1ccccc1CC(Oc1ncnc2sc(-c3cc(F)c(F)c(F)c3)c(-c3ccc(OCCN4CCN(C)CC4)c(Cl)c3C)c12)C(=O)O [Example 523, (2R)-2-{[(5Sa)-5-{3-chloro-2-methyl-4-[2-(4-methylpiperazin-1-yl)ethoxy]phenyl}-6-(3,4,5-trifluorophenyl)thieno[2,3-d]pyrimidin-4-yl]oxy}-3-(2-methoxyphenyl)propanoic acid]	1.8e-09	0.532	–
COc1ccccc1CC(Oc1ncnc2sc(-c3cc(F)c(F)c(OC)c3)c(-c3ccc(OCCN4CCN(C)CC4)c(Cl)c3C)c12)C(=O)O [Example 524, (2R)-2-{[(5Sa)-5-{3-chloro-2-methyl-4-[2-(4-methylpiperazin-1-yl)ethoxy]phenyl}-6-(3,4-difluoro-5-methoxyphenyl)thieno[2,3-d]pyrimidin-4-yl]oxy}-3-(2-methoxyphenyl)propanoic acid]	3.1e-08	0.417	–
COc1ccccc1CC(Oc1ncnc2sc(-c3cc(F)c(F)c(F)c3F)c(-c3ccc(OCCN4CCN(C)CC4)c(Cl)c3C)c12)C(=O)O [Example 525, (2R)-2-{[(5Sa)-5-{3-chloro-2-methyl-4-[2-(4-methylpiperazin-1-yl)ethoxy]phenyl}-6-(2,3,4,5-tetrafluorophenyl)thieno[2,3-d]pyrimidin-4-yl]oxy}-3-(2-methoxyphenyl)propanoic acid]	3.3e-09	0.755	–

The remaining molecules from weak to strong by IC50 (Mcl-1 protein), led by results:

IC50 (Mcl-1 protein) [M]	SMILES	IC50 ([1]; Homo sapiens, NCI-H929, 48 h) [µM]	IC50 [1] [µM]
1.3e-07	Cc1c(-c2c(-c3cncs3)sc3ncnc(OC(Cc4ccccc4)C(=O)O)c23)ccc(OCCN2CCN(C)CC2)c1Cl [Example 512, (2R)-2-{[(5Sa)-5-{3-chloro-2-methyl-4-[2-(4-methylpiperazin-1-yl)ethoxy]phenyl}-6-(1,3-thiazol-5-yl)thieno[2,3-d]pyrimidin-4-yl]oxy}-3-phenylpropanoic acid]	7.42	–
1.3e-07	Cc1cscc1-c1sc2ncnc(O[C@H](Cc3ccccc3)C(=O)O)c2c1-c1ccc(OCCN2CCN(C)CC2)c(Cl)c1C [Example 516, (2R)-2-{[(5Sa)-5-{3-chloro-2-methyl-4-[2-(4-methylpiperazin-1-yl)ethoxy]phenyl}-6-(4-methylthiophen-3-yl)thieno[2,3-d]pyrimidin-4-yl]oxy}-3-phenylpropanoic acid]	–	5.07
9.6e-08	Cc1cc(-c2sc3ncnc(OC(Cc4ccccc4)C(=O)O)c3c2-c2ccc(OCCN3CCN(C)CC3)c(Cl)c2C)cs1 [Example 514, (2R)-2-{[(5Sa)-5-{3-chloro-2-methyl-4-[2-(4-methylpiperazin-1-yl)ethoxy]phenyl}-6-(5-methylthiophen-3-yl)thieno[2,3-d]pyrimidin-4-yl]oxy}-3-phenylpropanoic acid]	1.7	–
9e-08	CC#Cc1sc2ncnc(OC(Cc3cccc4occc34)C(=O)O)c2c1-c1ccc(OCCN2CCN(C)CC2)c(Cl)c1C [Example 492, (2R)-3-(1-benzofuran-4-yl)-2-{[(5Sa)-5-{3-chloro-2-methyl-4-[2-(4-methylpiperazin-1-yl)ethoxy]phenyl}-6-(prop-1-yn-1-yl)thieno[2,3-d]pyrimidin-4-yl]oxy}propanoic acid]	2.19	–
8e-08	Cc1ccc(-c2sc3ncnc(O[C@H](Cc4ccccc4)C(=O)O)c3c2-c2ccc(OCCN3CCN(C)CC3)c(Cl)c2C)s1 [Example 500, (2R)-2-{[(5Sa)-5-{3-chloro-2-methyl-4-[2-(4-methylpiperazin-1-yl)ethoxy]phenyl}-6-(5-methylthiophen-2-yl)thieno[2,3-d]pyrimidin-4-yl]oxy}-3-phenylpropanoic acid]	–	2.25
7.5e-08	Cc1c(-c2c(-c3ccn(C)n3)sc3ncnc(OC(Cc4ccccc4)C(=O)O)c23)ccc(OCCN2CCN(C)CC2)c1Cl [Example 506, (2R)-2-{[(5Sa)-5-{3-chloro-2-methyl-4-[2-(4-methylpiperazin-1-yl)ethoxy]phenyl}-6-(1-methyl-1H-pyrazol-3-yl)thieno[2,3-d]pyrimidin-4-yl]oxy}-3-phenylpropanoic acid]	8.29	–
6.2e-08	Cc1c(-c2c(-c3ccoc3)sc3ncnc(OC(Cc4ccccc4)C(=O)O)c23)ccc(OCCN2CCN(C)CC2)c1Cl [Example 509, (2R)-2-{[(5Sa)-5-{3-chloro-2-methyl-4-[2-(4-methylpiperazin-1-yl)ethoxy]phenyl}-6-(furan-3-yl)thieno[2,3-d]pyrimidin-4-yl]oxy}-3-phenylpropanoic acid]	1.46	–
3.6e-08	Cc1csc(-c2sc3ncnc(OC(Cc4ccccc4)C(=O)O)c3c2-c2ccc(OCCN3CCN(C)CC3)c(Cl)c2C)c1 [Example 495, (2R)-2-{[(5Sa)-5-{3-chloro-2-methyl-4-[2-(4-methylpiperazin-1-yl)ethoxy]phenyl}-6-(4-methylthiophen-2-yl)thieno[2,3-d]pyrimidin-4-yl]oxy}-3-phenylpropanoic acid]	1.19	–
3.5e-08	Cc1c(-c2c(Br)sc3ncnc(OC(Cc4ccccc4)C(=O)O)c23)ccc(OCCN2CCN(C)CC2)c1Cl [Example 518, (2R)-2-[(6-bromo-(5Sa)-5-{3-chloro-2-methyl-4-[2-(4-methylpiperazin-1-yl)ethoxy]phenyl}thieno[2,3-d]pyrimidin-4-yl)oxy]-3-phenylpropanoic acid]	9.18	–
4.1e-09	COc1ccccc1CC(Oc1ncnc2sc(-c3cc(F)cc(Cl)c3)c(-c3ccc(OCCN4CCN(C)CC4)c(Cl)c3C)c12)C(=O)O [Example 526, (2R)-2-{[6-(3-chloro-5-fluorophenyl)-(5Sa)-5-{3-chloro-2-methyl-4-[2-(4-methylpiperazin-1-yl)ethoxy]phenyl}thieno[2,3-d]pyrimidin-4-yl]oxy}-3-(2-methoxyphenyl)propanoic acid]	0.835	–
